Laboratory results published in patent US8809232B2, “Herbicidal compositions comprising 4-amino-3-chloro-5-fluoro-6-(4-chloro-2-fluoro-3-methoxyphenyl) pyridine-2-carboxylic acid or a derivative thereof and halosulfuron, pyrazosulfuron and esprocarb” (Dow Agrosciences LLC, priority 2012, dated 2014).

Assays:
BRAPP = test: Post-emergence foliar-applied herbicidal mixtures, greenhouse, direct seeded rice weeds; type: in vivo
From the text: (§1) Seeds or nutlets of the desired test plant species were planted in a soil matrix prepared by mixing a loam or sandy loam soil (e.g., 28.6 percent silt, 18.8 percent clay, and 52.6 percent sand, with a pH of about 5.8 and an organic matter content of about 1.8 percent) and calcareous grit in an 80 to 20 ratio. The soil matrix was contained in plastic pots with a volume of 1 quart and a surface area of 83.6 square centimeters (cm^2). When required to ensure good germination and healthy plants, a fungicide treatment and/or other chemical or physical treatment was applied. The plants were grown for 8-22 days in a greenhouse with an approximate 14 hr photoperiod which was maintained at about 29° C. during the day and 26° C. during the night. Nutrients (Peters Excel® 15-5-15 5-Ca 2-Mg and iron chelate) were applied in the irrigation solution as needed and water was added on a regular basis. Supplemental lighting was provided with overhead metal halide 1000-Watt lamps as necessary. The plants were employed for testing when they reached the first through fourth true leaf stage.
(§2) Treatments consisted of the acid or esters of 4-amino-3-chloro-5-fluoro-6-(4-chloro-2-fluoro-3-methoxy-phenyl)pyridine-2-carboxylic acid (Compound A), each formulated as an SC (suspension concentrate), and various herbicidal components alone and in combination. Forms of compound A were applied on an acid equivalent basis.
(§3) Other herbicidal components were applied on an active ingredient basis and included the acetolactate synthase (ALS)-inhibiting herbicides halosulfuron-methyl formulated as Permit® 75 WDG, pyrazosulfuron-ethyl formulated as Agreen® WG or Sirius® G, and the VLCFA inhibiting herbicide esprocarb (technical grade material).
(§4) Treatment requirements were calculated based upon the rates being tested, the concentration of active ingredient or acid equivalent in the formulation, and a 12 mL application volume at a rate of 187 L/ha.
For treatments comprised of formulated compounds, measured amounts of compounds were placed individually in 25 mL glass vials and diluted in a volume of 1.25% (v/v) Agri-Dex® crop oil concentrated to obtain 12× stock solutions. […] Application solutions were prepared by adding an appropriate amount of each stock solution (e.g., 1 mL) and diluted to the appropriate final concentrations with the addition of 10 mL of an aqueous mixture of 1.25% (v/v) crop oil concentrate so that the final spray solutions contained 1.25+/−0.05% (v/v) crop oil concentrate.
For treatments comprised of technical compounds, weighed amounts can be placed individually in 25 mL glass vials and dissolved in a volume of 97:3 v/v acetone/DMSO to obtain 12× stock solutions. […] Application solutions can be prepared by adding an appropriate amount of each stock solution (e.g., 1 mL) and diluted to the appropriate final concentrations with the addition of 10 mL of an aqueous mixture of 1.5% (v/v) crop oil concentrate so that the final spray solutions contain 1.25% (v/v) crop oil concentrate. When technical materials are used, the concentrated stock solutions can be added to the spray solutions so that the final acetone and DMSO concentrations of the application solutions are 16.2% and 0.5%, respectively.
For treatments comprised of formulated and technical compounds, weighed amounts of the technical materials were placed individually in 25 mL glass vials and dissolved in a volume of 97:3 v/v acetone/DMSO to obtain 12× stock solutions, and measured amounts of the formulated compounds were placed individually in 25 mL glass vials and diluted in a volume of 1.5% (v/v) crop oil concentrate or water to obtain 12× stock solutions. […] Application solutions were prepared by adding an appropriate amount of each stock solution (e.g., 1 mL) and diluted to the appropriate final concentrations with the addition of an appropriate amount of an aqueous mixture of 1.5% (v/v) crop oil concentrate so that the final spray solutions contained 1.25% (v/v) crop oil concentrate. […]

SCPJU [1] = test: In-water applied herbicidal mixtures, greenhouse, transplanted paddy rice weeds; type: in vivo, Schoenoplectus juncoides (Roxb.) Palla
Method: (§5) Weed seeds or nutlets of the desired test plant species were planted in puddled soil (mud) prepared by mixing a shredded, non-sterilized mineral soil (50.5 percent silt, 25.5 percent clay, and 24 percent sand, with a pH of about 7.6 and an organic matter content of about 2.9 percent) and water at a 1:1 volumetric ratio. The prepared mud was dispensed in 365 mL aliquots into 16-ounce (oz.) non-perforated plastic pots with a surface area of 86.59 square centimeters (cm^2) leaving a headspace of 3 centimeters (cm) in each pot Mud was allowed to dry overnight prior to planting or transplanting. Rice seeds were planted in Sun Gro MetroMix® 306 planting mixture, which typically has a pH of 6.0 to 6.8 and an organic matter content of about 30 percent, in plastic plug trays. Seedlings at the second or third leaf stage of growth were transplanted into 840 mL of mud contained in 32-oz. non-perforated plastic pots with a surface area of 86.59 cm^2 4 days prior to herbicide application. The paddy was created by filling the headspace of the pots with 2.5 to 3 cm of water. When required to ensure good germination and healthy plants, a fungicide treatment and/or other chemical or physical treatment was applied. The plants were grown for 4-22 days in a greenhouse with an approximate 14 hr photoperiod which was maintained at about 29′C during the day and 26° C. during the night. Nutrients were added as Osmocote® (19:6:12, N:P:K^+ minor nutrients) at 2 g per 16-oz. pot and 4 g per 32-oz. pot. Water was added on a regular basis to maintain the paddy flood, and supplemental lighting was provided with overhead metal halide 1000-Watt lamps as necessary. The plants were employed for testing when they reached the first through fourth true leaf stage.
as §2, with “(compound A)” for “(Compound A),”, “concentrate)” for “concentrate),”, “basis. […]” for “basis.”
(§6) Treatment requirements for each compound or herbicidal component were calculated based upon the rates being tested, the concentration of active ingredient or acid equivalent in the formulation, an application volume of 2 mL per component per pot, and an application area of 86.59 cm^2 per pot.
For formulated compounds, a measured amount was placed in an individual 100 or 200 mL glass vial and was dissolved in a volume of 1.25% (v/v) Agri-Dex® crop oil concentrate to obtain application solutions. […]

CYPRO = test: as above; type: in vivo, Cyperus rotundus L.
Method: as §5
as §2, with “(compound A)” for “(Compound A),”, “concentrate)” for “concentrate),”
(§7) Other herbicidal components were applied on an active ingredient basis and included acetolactate synthase (ALS)-inhibiting herbicides formulated as Permit® 75 WDG, pyrazosulfuron-ethyl formulated as Agreen® WG or Sirius® G, and VLCFA inhibiting herbicide esprocarb (technical grade material).
as §6
(§8) For formulated compounds, a measured amount was placed in an individual 100 or 200 mL glass vial and was dissolved in a volume of 1.25% (v/v) Agri-Dex® crop oil concentrate to obtain application solutions.
(§9) For technical grade compounds, a weighed amount was placed in an individual 100 to 200 mL glass vial and was dissolved in a volume of acetone to obtain concentrated stock solutions. […] The concentrated stock solutions obtained were diluted with an equivalent volume of an aqueous mixture containing 2.5% (v/v) crop oil concentrate so that the final application solutions contained 1.25% (v/v) crop oil concentrate.
Applications were made by injecting with a pipetter appropriate amounts of the application solutions, individually and sequentially, into the aqueous layer of the paddy. Control plants were treated in the same manner with the solvent blank. Applications were made so that all treated plant material received the same concentrations of acetone and crop oil concentrate.
The treated plants and control plants were placed in a greenhouse as described above and water was added as needed to maintain a paddy flood. […]

FIMMI = test: as above; type: in vivo, Fimbristylis miliacea (L.) Vahl
Method: as §5
as §2, with “(compound A)” for “(Compound A),”, “concentrate)” for “concentrate),”
as §7, §6, §8, §9
Applications were made by injecting with a pipetter appropriate amounts of the application solutions, individually and sequentially, into the aqueous layer of the paddy. […]

ECHCO = test: Post-emergence foliar-applied herbicidal mixtures, greenhouse, direct seeded rice weeds; type: in vivo, Echinochloa colona (L.) Link; conditions: 105 g ai/ha
From the text: as §1, with “stage. […]” for “stage.”
as §4
(§10) For treatments comprised of formulated compounds, measured amounts of compounds were placed individually in 25 mL glass vials and diluted in a volume of 1.25% (v/v) Agri-Dex® crop oil concentrated to obtain 12× stock solutions. […]
(§11) For treatments comprised of formulated and technical compounds, weighed amounts of the technical materials were placed individually in 25 mL glass vials and dissolved in a volume of 97:3 v/v acetone/DMSO to obtain 12× stock solutions, and measured amounts of the formulated compounds were placed individually in 25 mL glass vials and diluted in a volume of 1.5% (v/v) crop oil concentrate or water to obtain 12× stock solutions. […]

SCPJU [2] = test: as above; type: in vivo, Schoenoplectus juncoides (Roxb.) Palla
From the text: as §1, with “stage. […]” for “stage.”
as §4, §10, §11

CYPIR = test: as above; type: in vivo, Cyperus iria L.
From the text: as §1, §2, §3, §4, §10, §11

In the case of `CCN(C(=O)SCc1ccccc1)C(C)C(C)C` (stereo not drawn) [Esprocarb, S-(phenylmethyl) N-(1,2-dimethylpropyl)-N-ethylcarbamothioate], the “Visual Weed Control (%) - 22 DAA BRAPP Obs” value (BRAPP; 52.5 g ai/ha) is reported as 0%, the “Visual Weed Control (%) - 22 DAA BRAPP Obs” value (BRAPP; 105 g ai/ha) is reported as 0% and the “Visual Weed Control (%) - 21 DAA SCPJU Obs” value (SCPJU [1]; 105 g ai/ha) is reported as 0%. The “Visual Weed Control (%) - 21 DAA SCPJU Obs” value (SCPJU [1]; 210 g ai/ha) was 0%, the “Visual Weed Control (%) - 21 DAA CYPRO Obs” value (CYPRO; 105 g ai/ha) was 0% and the “Visual Weed Control (%) - 21 DAA CYPRO Obs” value (CYPRO; 210 g ai/ha) was 50%. For the same molecule, the “Visual Weed Control (%) - 21 DAA FIMMI Obs” value (FIMMI; 105 g ai/ha) was 0%, the “Visual Weed Control (%) - 21 DAA FIMMI Obs” value (FIMMI; 210 g ai/ha) was 0% and the “Visual Weed Control (%) - 22 DAA ECHCO Obs” value (ECHCO) was 0%. The “Visual Weed Control (%) - 22 DAA SCPJU Obs” value (SCPJU [2]; 52.5 g ai/ha) was 0%, the “Visual Weed Control (%) - 22 DAA SCPJU Obs” value (SCPJU [2]; 105 g ai/ha) was 0% and the “Visual Weed Control (%) - 22 DAA CYPIR Obs” value (CYPIR; 52.5 g ai/ha) was 0%. The “Visual Weed Control (%) - 22 DAA CYPIR Obs” value (CYPIR; 105 g ai/ha) was 0%.
